The record followed here is PMC9632963, “Preclinical characterization and phase I clinical trial of CT053PTSA targets MET, AXL, and VEGFR2 in patients with advanced solid tumors” (Frontiers in Immunology, 2022).

Assay [1] relates to patients with advanced solid tumors. Description: Phase I trial: antitumor activity (RECIST 1.1). The format is in vivo, human. On the procedure:
Descriptive statistics of safety are presented per CTCAE v4.0. Subjects who received at least one dose of CT053PTSA were considered eligible to be evaluated and included in safety analyses. […] According to the RECIST 1.1 criteria, imaging examinations were performed at each specified time point in the protocol. The antitumor activity was measured by RECIST1.1.

The target of assay [2] is C-KIT (Homo sapiens, UniProt P10721). Description: Kinase inhibition assay (LANCE or HTRF). Conditions: ATP at Km. It is filed as biochemical.
Chain of C-KIT (P10721 26-976): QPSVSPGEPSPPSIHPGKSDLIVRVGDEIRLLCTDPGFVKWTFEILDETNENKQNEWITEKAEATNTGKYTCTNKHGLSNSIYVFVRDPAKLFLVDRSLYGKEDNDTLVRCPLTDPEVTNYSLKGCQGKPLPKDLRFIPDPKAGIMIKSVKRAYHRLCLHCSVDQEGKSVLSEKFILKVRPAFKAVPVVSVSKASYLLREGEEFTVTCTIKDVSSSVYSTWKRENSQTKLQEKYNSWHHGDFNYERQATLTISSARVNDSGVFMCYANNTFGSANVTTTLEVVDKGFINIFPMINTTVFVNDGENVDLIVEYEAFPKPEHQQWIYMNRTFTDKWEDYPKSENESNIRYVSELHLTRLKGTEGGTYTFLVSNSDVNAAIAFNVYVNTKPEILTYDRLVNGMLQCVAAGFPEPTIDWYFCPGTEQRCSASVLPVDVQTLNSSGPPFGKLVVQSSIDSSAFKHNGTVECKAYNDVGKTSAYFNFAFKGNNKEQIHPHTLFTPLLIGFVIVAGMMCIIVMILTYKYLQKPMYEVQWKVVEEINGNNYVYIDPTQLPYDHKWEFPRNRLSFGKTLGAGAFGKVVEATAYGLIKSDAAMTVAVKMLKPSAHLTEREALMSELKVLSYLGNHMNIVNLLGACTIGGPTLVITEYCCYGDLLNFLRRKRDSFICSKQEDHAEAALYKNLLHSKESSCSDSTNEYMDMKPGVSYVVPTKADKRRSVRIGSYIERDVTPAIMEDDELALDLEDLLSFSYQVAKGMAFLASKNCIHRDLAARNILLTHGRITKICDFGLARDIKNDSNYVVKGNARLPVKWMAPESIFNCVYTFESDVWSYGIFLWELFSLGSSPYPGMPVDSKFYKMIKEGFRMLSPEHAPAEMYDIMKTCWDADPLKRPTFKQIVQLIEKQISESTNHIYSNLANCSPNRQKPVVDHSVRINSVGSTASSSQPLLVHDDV
Procedure: (§2) The IC50 values were determined by measuring phosphorylation of peptide substrate poly at ATP concentrations at the Km.
Assay [3] concerns the target EphA8 (Homo sapiens, UniProt P29322). Description: Kinase inhibition assay (LANCE or HTRF). It is filed as biochemical. The settings on record: ATP at Km. (TR-FRET usually uses a lanthanide donor and a delayed reading to cut background.)
Procedure: as §2
For assay [4], the system named is GTL16. In words: Cell proliferation assay (CellTiter-Glo, 72 hours). The format is cell-based. The settings on record: Homo sapiens, GTL 16, read-out: IC50 anti-proliferative.
Procedure: (§3) Human gastric tumor cell lines with high MET expression levels, namely, the GTL-16, MKN45, SNU638, Hs746T, SNU-620, and SNU-5 cell lines, were used in the assay. […] Cell viability was measured after 72 hours using a CellTiter-Glo Luminescent Cell Viability Assay Kit (Promega, WI, USA) according to the manufacturer’s instructions.
For assay [5], the target named is T1, VEGFR2 (Homo sapiens, UniProt P35968). In words: Cellular kinase phosphorylation assay (sandwich ELISA), HUVECs, VEGF-A stimulated. Further details: endogenous in cells; host or cells: HUVEC. It is filed as cell-based. As to the method:
Phosphorylation of the receptors MET, AXL, VEGFR2, and FLT3 was assessed in the transgenic human MKN45 gastric tumor cell line overexpressing MET, mouse embryonic fibroblasts (MEFs) expressing full-length human AXL (AXL-MEFs), human umbilical vein endothelial cells (HUVECs) […], and MEFs expressing full-length human FLT3 (FLT3-wt-MEFs), respectively. […] Then, HUVECs and FLT3-wt-MEFs were stimulated with the ligands VEGF-A (100 ng/ml, for 3 min) and FLT3-ligand (50 ng/ml, for 5 min). MKN45 (overexpressing MET) and AXL-MEFs cells had no stimulation. Cells treated with staurosporine (AXL, FLT3-wt, c-Kit, FLT3, TIE2, VEGF-R2; [1,0E-05 M]) or BMS777607 (MET; [1,0E-06 M]) or sunitinib (VEGF-R3; [1,0E-06 M]) or crizotinib (RON; [1,0E-05 M] were defined as low control (n = 8). The median value of those wells represented the background and was set to 0%. Cells treated with solvent alone were defined as high control (n = 8). The median value of those wells was set to 100%. Test sample-treated cells as well as high and low control were stimulated in identical manner. Quantification of receptor tyrosine kinase autophosphorylation was assessed in 96-well plates via sandwich ELISA using a receptor specific capture antibody and an anti-phosphotyrosine detection antibody. […]
For orientation: In an ELISA, binding on a coated surface is turned into a signal by an enzyme label.

Assay [6] addresses AXL (Homo sapiens, UniProt P30530). Description: Kinase inhibition assay (LANCE or HTRF). The format is biochemical. Further details: expressing full-length human AXL (AXL-MEFs); expressed in transfected cells; host or cells: mouse embryonic fibroblasts (MEFs). Conditions: ATP at Km.
Procedure: as §2
In assay [7] the test system is HS746T. Description: Cell proliferation assay (CellTiter-Glo, 72 hours). Conditions: Homo sapiens, read-out: IC50 anti-proliferative. The format is cell-based. (ATP-based viability assays read luminescence as a measure of living cells.)
Procedure: Human gastric tumor cell lines with high MET expression levels, namely, the GTL-16, MKN45, SNU638, Hs746T, SNU-620, and SNU-5 cell lines, were used in the assay. These cell lines were obtained from American Type Culture Collection (ATCC), Japanese Collection of Research Bioresources (JCRB), Shanghai Institutes of Biological Sciences, CAS (SIBS), Korean Cell Line Bank (KCLB) or National Institutes of Health (NIH). […] Cell viability was measured after 72 hours using a CellTiter-Glo Luminescent Cell Viability Assay Kit (Promega, WI, USA) according to the manufacturer’s instructions.
Assay [8] deals with phosphorylation of MET. In words: Western blot of tumor lysates from GA3121 PDX model. The settings on record: 20 mg/kg, 21 days. The format is in vivo, immunodeficient mice. The source says:
The SNU-5 cell line was selected for western blotting analysis of signaling molecules. […] Immunoreactive proteins (p-AXL, t-ERK and p-ERK) were visualized using the ECL system (Pierce Chemical, TX, USA). Other proteins were detected by Odyssey (LI-COR, NE, USA) at a wavelength of 700 nm or 800 nm. […] Tumor lysates were subjected to western blotting. The following antibodies were purchased from Cell Signaling Technology (Cell Signaling Technology Cat#3148, RRID : AB_1031042): anti-MET (Cell Signaling Technology Cat# 3148, RRID : AB_1031042), anti-p-MET Y1234/1235 (Antibodies-Online Cat# ABIN461461, RRID : AB_10786128), anti-AXL (Cell Signaling Technology Cat# 4566, RRID : AB_2062563), anti-p-AXL Y702 (5724S), anti-ERK (9107S), anti-p-ERK Thr202/Tyr204 (4370S), anti-p-AKT Ser473 (4060S), and anti-AKT (Cell Signaling Technology Cat# 2920, RRID : AB_1147620).
(§1) Human tumor xenografts were established in female BALB/cA nude mice (5-6 weeks old) by administering the SNU-5 and MKN-45 cells, which have high MET expression levels. […] The subcutaneous tumor size and body weight were measured twice weekly. The tumor volumes were determined by measuring two perpendicular diameters with calipers and calculated as (length × width^2)/2.

The target of assay [9] is T1, VEGFR2. Description: Kinase inhibition assay (LANCE or HTRF). The format is biochemical. The settings on record: ATP at Km.
Procedure: as §2
Assay [10] has as its system NCI-N87. Description: Cell proliferation assay (CellTiter-Glo, 72 hours). It is filed as cell-based. The settings on record: Homo sapiens, read-out: IC50 anti-proliferative.
Procedure: These cell lines were obtained from American Type Culture Collection (ATCC), Japanese Collection of Research Bioresources (JCRB), Shanghai Institutes of Biological Sciences, CAS (SIBS), Korean Cell Line Bank (KCLB) or National Institutes of Health (NIH). […] Cell viability was measured after 72 hours using a CellTiter-Glo Luminescent Cell Viability Assay Kit (Promega, WI, USA) according to the manufacturer’s instructions.
The target in assay [11] is RON (Homo sapiens, UniProt Q04912). In words: Kinase inhibition assay (LANCE or HTRF). The format is biochemical. Conditions: ATP at Km.
Procedure: as §2
The test system of assay [12] is SNU-5. In words: Cell proliferation assay (CellTiter-Glo, 72 hours). It is filed as cell-based. Conditions: Homo sapiens, read-out: IC50 anti-proliferative.
Procedure: as §3
The subject of assay [13] is MKN-45 CDX xenografts. Description: In vivo efficacy study, CDX model. Details: species or system BALB/cA nude mice. As to the method:
as §1, with “levels. For efficacy studies in patient-derived tumor xenograft (PDX) mouse models, MET-overexpressing GA0046 and GA3121 tumors (obtained from Crownbio, CA, USA) were established by directly implanting surgical tissues into immunodeficient mice.” for “levels.”

Assay [14] relates to SNU-5 CDX xenografts. In words: In vivo efficacy study, CDX model. Details: species or system BALB/cA nude mice. On the procedure:
as §1, with “levels. For efficacy studies in patient-derived tumor xenograft (PDX) mouse models, MET-overexpressing GA0046 and GA3121 tumors (obtained from Crownbio, CA, USA) were established by directly implanting surgical tissues into immunodeficient mice.” for “levels.”

The target of assay [15] is MERTK (Homo sapiens, UniProt Q12866). Description: Kinase inhibition assay (LANCE or HTRF). It is filed as biochemical. Conditions: ATP at Km.
Chain of MERTK (Q12866 21-999): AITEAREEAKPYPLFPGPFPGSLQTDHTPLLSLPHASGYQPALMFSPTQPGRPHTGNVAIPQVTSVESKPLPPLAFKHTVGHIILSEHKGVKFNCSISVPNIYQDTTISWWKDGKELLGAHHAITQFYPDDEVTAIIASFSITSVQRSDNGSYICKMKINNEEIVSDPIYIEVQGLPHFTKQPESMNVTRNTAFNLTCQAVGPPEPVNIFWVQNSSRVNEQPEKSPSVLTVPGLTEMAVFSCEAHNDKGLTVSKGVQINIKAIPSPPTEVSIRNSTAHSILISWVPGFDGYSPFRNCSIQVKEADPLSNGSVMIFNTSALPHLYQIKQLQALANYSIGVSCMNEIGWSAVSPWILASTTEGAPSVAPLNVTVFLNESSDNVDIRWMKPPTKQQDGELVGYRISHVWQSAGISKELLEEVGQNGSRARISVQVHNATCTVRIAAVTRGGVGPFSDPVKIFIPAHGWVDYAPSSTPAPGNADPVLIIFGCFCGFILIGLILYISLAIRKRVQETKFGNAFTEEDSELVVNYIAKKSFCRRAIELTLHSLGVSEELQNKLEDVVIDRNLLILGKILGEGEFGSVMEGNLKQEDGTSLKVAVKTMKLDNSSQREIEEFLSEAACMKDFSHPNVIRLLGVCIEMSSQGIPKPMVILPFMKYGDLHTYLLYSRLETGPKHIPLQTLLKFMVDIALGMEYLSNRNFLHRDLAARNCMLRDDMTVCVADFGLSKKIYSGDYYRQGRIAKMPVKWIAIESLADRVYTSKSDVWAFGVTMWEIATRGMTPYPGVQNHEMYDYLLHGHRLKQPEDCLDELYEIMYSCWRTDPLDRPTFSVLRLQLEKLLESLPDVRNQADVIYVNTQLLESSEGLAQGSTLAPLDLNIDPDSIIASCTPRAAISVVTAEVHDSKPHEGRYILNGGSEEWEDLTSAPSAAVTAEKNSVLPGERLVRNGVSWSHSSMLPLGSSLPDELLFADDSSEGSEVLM
Procedure: as §2
Setting [16] is: 3 mg/kg once per day oral gavage.

“And” between values parts separate entries of the source, which are not always exact repeats. Equal values may be shown once. “Also recorded” adds a separate entry of the source.

T1 sequence (P35968 20-1356): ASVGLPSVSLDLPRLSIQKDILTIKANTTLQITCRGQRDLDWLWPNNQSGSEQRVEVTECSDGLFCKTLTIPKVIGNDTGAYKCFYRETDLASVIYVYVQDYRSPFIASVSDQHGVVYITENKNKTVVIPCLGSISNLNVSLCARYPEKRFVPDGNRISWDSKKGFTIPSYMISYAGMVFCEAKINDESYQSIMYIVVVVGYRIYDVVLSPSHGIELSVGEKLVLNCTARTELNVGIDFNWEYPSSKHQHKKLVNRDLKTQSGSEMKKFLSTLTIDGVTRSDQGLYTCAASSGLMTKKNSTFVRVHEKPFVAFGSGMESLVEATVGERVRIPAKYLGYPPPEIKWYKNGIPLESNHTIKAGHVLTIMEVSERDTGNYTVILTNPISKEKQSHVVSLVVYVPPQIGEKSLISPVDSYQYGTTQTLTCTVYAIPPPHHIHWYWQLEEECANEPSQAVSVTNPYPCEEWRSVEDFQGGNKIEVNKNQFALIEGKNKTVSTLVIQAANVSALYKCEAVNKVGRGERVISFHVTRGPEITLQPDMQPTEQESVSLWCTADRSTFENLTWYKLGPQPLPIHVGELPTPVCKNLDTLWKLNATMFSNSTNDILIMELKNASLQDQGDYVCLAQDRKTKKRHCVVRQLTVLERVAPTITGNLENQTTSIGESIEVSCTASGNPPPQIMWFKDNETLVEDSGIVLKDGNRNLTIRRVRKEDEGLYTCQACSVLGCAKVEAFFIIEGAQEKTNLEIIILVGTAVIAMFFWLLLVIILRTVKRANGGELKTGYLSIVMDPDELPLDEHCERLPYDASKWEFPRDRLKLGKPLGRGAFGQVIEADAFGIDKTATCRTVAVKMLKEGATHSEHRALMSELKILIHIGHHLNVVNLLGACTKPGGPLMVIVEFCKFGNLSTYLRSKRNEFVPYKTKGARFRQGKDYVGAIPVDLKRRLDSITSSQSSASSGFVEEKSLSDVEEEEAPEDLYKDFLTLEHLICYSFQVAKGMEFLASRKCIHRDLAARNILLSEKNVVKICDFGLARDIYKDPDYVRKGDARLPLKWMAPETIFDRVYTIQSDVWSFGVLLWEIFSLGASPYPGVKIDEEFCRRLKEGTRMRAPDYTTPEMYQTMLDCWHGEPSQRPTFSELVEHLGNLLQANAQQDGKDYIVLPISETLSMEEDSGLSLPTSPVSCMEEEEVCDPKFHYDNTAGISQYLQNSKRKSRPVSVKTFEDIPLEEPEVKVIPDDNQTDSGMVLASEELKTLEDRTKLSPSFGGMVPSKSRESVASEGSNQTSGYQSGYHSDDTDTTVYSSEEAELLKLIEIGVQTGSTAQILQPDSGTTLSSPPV
Chain of EphA8 (P29322 28-1005): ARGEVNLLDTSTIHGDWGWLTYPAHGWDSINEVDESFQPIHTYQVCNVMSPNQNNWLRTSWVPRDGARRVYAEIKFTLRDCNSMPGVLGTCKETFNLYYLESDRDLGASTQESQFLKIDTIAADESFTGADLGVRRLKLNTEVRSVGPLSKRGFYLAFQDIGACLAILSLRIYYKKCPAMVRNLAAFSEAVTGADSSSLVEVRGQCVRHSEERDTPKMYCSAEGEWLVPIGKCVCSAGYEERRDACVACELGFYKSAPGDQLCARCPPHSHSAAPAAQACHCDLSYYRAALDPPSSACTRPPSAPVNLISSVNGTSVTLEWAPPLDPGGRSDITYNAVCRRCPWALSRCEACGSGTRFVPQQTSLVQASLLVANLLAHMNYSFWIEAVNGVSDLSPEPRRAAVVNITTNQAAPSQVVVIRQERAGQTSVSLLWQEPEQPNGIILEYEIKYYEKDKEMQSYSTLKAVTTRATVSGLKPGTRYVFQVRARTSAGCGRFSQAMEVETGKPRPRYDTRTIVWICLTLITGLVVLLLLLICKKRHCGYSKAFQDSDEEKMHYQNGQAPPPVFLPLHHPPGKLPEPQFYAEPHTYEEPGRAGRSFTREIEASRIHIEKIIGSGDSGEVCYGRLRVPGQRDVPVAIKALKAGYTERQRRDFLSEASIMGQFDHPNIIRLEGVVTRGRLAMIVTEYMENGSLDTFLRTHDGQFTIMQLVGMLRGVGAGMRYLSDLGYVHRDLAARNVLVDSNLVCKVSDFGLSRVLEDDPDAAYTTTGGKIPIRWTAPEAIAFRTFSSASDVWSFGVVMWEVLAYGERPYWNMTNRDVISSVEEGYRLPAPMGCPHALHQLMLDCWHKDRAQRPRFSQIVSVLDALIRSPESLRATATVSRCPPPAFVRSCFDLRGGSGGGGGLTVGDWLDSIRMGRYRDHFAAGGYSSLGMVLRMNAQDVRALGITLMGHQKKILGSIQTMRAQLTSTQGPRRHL
Chain of AXL (P30530 26-894): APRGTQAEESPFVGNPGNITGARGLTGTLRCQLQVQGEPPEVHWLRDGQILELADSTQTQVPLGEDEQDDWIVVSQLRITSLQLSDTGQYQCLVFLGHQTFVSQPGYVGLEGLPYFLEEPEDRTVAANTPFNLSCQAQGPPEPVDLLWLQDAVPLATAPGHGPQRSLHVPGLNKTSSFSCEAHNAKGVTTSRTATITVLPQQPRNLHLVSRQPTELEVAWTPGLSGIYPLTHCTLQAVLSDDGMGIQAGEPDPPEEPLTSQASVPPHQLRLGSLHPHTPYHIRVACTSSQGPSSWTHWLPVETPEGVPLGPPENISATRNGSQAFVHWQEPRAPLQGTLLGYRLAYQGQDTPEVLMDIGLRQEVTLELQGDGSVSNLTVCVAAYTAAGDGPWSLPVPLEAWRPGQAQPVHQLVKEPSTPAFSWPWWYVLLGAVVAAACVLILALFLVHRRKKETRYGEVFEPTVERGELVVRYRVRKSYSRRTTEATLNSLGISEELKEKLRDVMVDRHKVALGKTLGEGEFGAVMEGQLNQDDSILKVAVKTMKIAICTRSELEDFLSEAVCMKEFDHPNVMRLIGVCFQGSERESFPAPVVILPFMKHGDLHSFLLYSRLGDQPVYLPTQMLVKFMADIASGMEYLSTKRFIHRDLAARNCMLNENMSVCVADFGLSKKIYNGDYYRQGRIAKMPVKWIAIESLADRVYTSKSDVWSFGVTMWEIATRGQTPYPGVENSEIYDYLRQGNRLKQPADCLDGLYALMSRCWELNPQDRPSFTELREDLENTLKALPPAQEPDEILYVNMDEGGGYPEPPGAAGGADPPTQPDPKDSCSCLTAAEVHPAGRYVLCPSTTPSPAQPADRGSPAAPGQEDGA

On to `Cc1c(C(=O)Nc2ccc(Oc3ccnc4cc(OCC(C)(C)O)ccc34)c(F)c2)c(=O)n(-c2ccccc2)n1C` [CT053PTSA], for which, in [1] (60 mg QD), the “duration of SD in single patients” value was 16 weeks and 24 weeks. Moreover, the “duration of SD in single patient” value in [1] (100 mg dose group) amounted to 8 weeks. In [1] (17 evaluated patients), the “CR or PR” value is recorded as “none of them achieved CR or PR; also recorded: No CR or PR was observed” and the DCR was 29.4%.
For orientation: IC50 means the concentration that inhibits the measured activity by half. As a reminder, the TGI is the reduction of tumour growth relative to the control group. Take `Cc1c(C(=O)Nc2ccc(Oc3ccnc4cc(OCC(C)(C)O)ccc34)c(F)c2)c(=O)n(-c2ccccc2)n1C` [CT053]: the IC50 in assay [2] was 960 nM; in [3], 620 nM; in [4], 170 nM; in [5] (HUVECs, VEGF-A 100 ng/ml, read-out: IC50, phosphorylation of VEGFR2), 1.1 nM; in [5] (printed in Figure 1E, read-out: phospho-VEGF-R2: IC50), 1.1 nM; in assay [6], 3.4 nM. Besides, the IC50 is 140 nM in assay [7]; 46 nM in [9]; greater than 10000 nM in [10]; 160 nM in assay [11]; 60 nM in [12]; 14 nM in assay [15]. In [8], the “phosphorylation of MET in tumors vs vehicle” value is “significantly inhibited”. Further, the TGI turned out to be 31% in assay [13] (setting [16]); 85% in [13] (10 mg/kg once per day oral gavage); 97% in [13] (20 mg/kg once per day oral gavage); 32% in assay [14] (1 mg/kg once per day oral gavage); 87% in [14] (setting [16]).
